Reference: patent US6458824B1, “Solid preparation” (Dainippon Pharmaceutical Co., Ltd., priority 1999, dated 2002)

Columns and labels:
Format in all cases: cell-based
[1] = molecular target: T1, human β1-adrenergic receptor (Homo sapiens, UniProt P08588); assay: cAMP accumulation in CHO/pKREX23-30 cells highly expressing human β1-adrenergic receptor
T1 construct: expressed in transfected cells; host or cells: CHO (clone CHO/pKREX23-30)
Experimental: (§1) The cells were peeled off by incubation with phosphate-buffered saline containing 0.5 mM EDTA at 37° C. for 10 minutes after the medium was removed. The CHO/pKREX10-36 cells were collected by centrifugation, and suspended in Hanks' buffer (ICN Biomedicals) containing 1 mM L-ascorbic acid and 1 mM 3-isobutyl-1-methylxanthine at the concentration of about 5×10^5 cells/ml. This suspension (100 μl) and a test compound were mixed in the same buffer (500 μl) and incubated at 37° C. for 30 minutes, followed by boiling for 5 minutes to terminate the reaction. After centrifugation of the reaction mixture, the amount of cAMP in the supernatant was measured by using cAMP EIA System (Amersham).
(§2) Similarly, the amount of cAMP was measured in the same manner by using CHO/pKREX21-8 for highly expressing human β2-adrenergic receptor, or by using CHO/pKREX23-30 for highly expressing human β1-adrenergic receptor instead of the CHO/pKREX10-36 for highly expressing human β3-adrenergic receptor.

[2] = molecular target: T2, human β2-adrenergic receptor (Homo sapiens, UniProt P07550); assay: cAMP accumulation in CHO/pKREX21-8 cells highly expressing human β2-adrenergic receptor
T2 construct: expressed in transfected cells; host or cells: CHO (clone CHO/pKREX21-8)
Experimental: as §1, §2

[3] = molecular target: T3, human β3-adrenergic receptor (Homo sapiens, UniProt P13945); assay: cAMP accumulation in CHO/pKREX10-36 cells highly expressing human β3-adrenergic receptor
T3 construct: expressed in transfected cells; host or cells: CHO (clone CHO/pKREX10-36)
Experimental: as §1

T3 sequence (P13945 whole entry): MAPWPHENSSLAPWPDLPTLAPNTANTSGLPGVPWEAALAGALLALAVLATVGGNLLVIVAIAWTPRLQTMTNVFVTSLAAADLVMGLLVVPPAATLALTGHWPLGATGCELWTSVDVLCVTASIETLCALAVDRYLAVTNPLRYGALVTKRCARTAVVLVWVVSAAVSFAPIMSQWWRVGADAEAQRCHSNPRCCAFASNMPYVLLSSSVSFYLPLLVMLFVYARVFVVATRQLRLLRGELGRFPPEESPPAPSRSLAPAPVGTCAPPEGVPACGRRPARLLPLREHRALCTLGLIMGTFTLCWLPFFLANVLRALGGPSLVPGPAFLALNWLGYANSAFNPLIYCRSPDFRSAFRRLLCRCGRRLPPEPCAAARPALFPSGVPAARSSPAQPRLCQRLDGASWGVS
T2 sequence (P07550 whole entry): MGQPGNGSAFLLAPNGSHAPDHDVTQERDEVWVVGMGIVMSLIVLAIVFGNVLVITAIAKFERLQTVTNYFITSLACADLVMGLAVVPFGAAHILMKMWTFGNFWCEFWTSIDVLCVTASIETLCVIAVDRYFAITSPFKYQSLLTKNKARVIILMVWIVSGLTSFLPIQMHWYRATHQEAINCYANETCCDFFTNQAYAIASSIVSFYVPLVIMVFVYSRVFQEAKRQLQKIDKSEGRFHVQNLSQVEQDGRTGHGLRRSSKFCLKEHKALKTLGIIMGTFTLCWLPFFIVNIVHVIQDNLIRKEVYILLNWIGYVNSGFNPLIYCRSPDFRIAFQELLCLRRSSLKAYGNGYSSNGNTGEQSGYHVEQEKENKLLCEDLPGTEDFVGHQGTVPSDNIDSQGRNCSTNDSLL
T1 sequence (P08588 whole entry): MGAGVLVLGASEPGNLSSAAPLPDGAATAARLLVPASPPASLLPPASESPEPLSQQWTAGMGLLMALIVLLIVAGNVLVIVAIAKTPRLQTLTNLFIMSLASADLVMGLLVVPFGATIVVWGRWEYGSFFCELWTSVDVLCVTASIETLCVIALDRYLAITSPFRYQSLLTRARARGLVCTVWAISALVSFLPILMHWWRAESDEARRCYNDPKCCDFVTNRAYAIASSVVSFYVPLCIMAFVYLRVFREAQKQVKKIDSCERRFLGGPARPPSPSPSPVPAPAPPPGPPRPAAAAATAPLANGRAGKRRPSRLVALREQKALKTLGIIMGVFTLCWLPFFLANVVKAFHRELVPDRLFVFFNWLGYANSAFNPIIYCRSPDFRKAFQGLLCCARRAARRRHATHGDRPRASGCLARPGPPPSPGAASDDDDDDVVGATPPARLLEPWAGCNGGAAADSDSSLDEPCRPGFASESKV

**Q.** How did the EC50 ([1]; cAMP accumulation, CHO/pKREX23-30) turn out when `C[C@H](Cc1c[nH]c2c(OCC(=O)O)cccc12)NC[C@H](O)c1cccc(Cl)c1` [Compound A, [3-[(2R)-[[(2R)-(3-chlorophenyl)-2-hydroxyethyl]amino]propyl]-1H-indol-7-yloxy]acetic acid] was run?
**A.** The EC50 was 3.5 nM.

**Q.** What about the “stimulating activity of human β1-adrenergic receptor (in words)” value ([1]; conclusion from Table 1) of the same molecule?
**A.** Its value is “quite weak”.

**Q.** And the Emax ([1]; relative maximal response, 10^-5 M (−)-isoproterenol = 100%, read-out: β1-receptor I.A. (intrinsic activity))?
**A.** Its Emax is 83%.

**Q.** What about the EC50 ([2]; cAMP accumulation, CHO/pKREX21-8) of the same molecule?
**A.** The EC50 was 21 nM.

**Q.** And the “stimulating activity of human β2-adrenergic receptor (in words)” value ([2]; conclusion from Table 1)?
**A.** Its value is “quite weak”.

**Q.** What about the Emax ([2]; relative maximal response, 10^-5 M (−)-isoproterenol = 100%, read-out: β2-receptor I.A. (intrinsic activity)) of the same molecule?
**A.** Its Emax is 45%.

**Q.** What about the EC50 ([3]; cAMP accumulation, CHO/pKREX10-36, 37° C. 30 minutes) of the same molecule?
**A.** The EC50 was 0.27 nM.

**Q.** And the “stimulating activity of human β3-adrenergic receptor (in words)” value ([3]; conclusion from Table 1)?
**A.** The value was “potent”.

**Q.** What about the Emax ([3]; relative maximal response, 10^-5 M (−)-isoproterenol = 100%, read-out: β3-receptor I.A. (intrinsic activity)) of the same molecule?
**A.** Its Emax is 110%.
